System: angiotensin II receptors
Assay: Inhibition of the pressor response to angiotensin II in conscious cardiomyopathic hamsters
Assay type: in vivo, hamsters of the BIO TO-2 strain
Details: for Change in mean arterial pressure: pressor response to angiotensin II 100 ng/kg i.v.
Protocol: The studies described in this experiment were conducted in male hamsters of the BIO TO-2 strain when they were approximately 260 days of age and weighed on average 115 g. These animals develop a genetic form of cardiomyopathy that progresses uniformly among animals through different stages of heart failure. By 240 - 300 days of age the cardiomyopathic hamsters are characterized (as compared with control hamsters) by low mean arterial pressure, a 40% reduction in cardiac output and a decrease in renal blood flow. They display elevated cardiac filling pressure, depressed ventricular function, increased peripheral vascular resistance and have an 8-10-fold increase in plasma atrial natriuretic peptide concentration.
The experiments were conducted in conscious, unrestrained, cardiomyphathic hamsters three hours after placement of cardivascular catheters using brief anesthesia. The catheters allowed measurement of mean arterial pressure, left ventricular end diastolic pressure, left ventricular systolic pressure and heart rate, and provided a means for the administration of agents intravenously.
Preliminary experiments were conducted in conscious cardiomyopathic hamsters to determine a dose regimen of BMS 186295 that would nearly completely block the pressor response to angiotensin II for at least two hours. The pressor responses to two challenges of angiotensin II (100 ng/kg, i.v. dissolved in 0.9% sodium chloride, 1 ml/kg) were determined. This dose of angiotensin II produced over a 30% increase in mean arterial pressure. Based on the preliminary experiments, BMS 186295 was administered to 5 cardiomyopathic hamsters at 30 µmol/kg, i.v. followed by continuous i.v. infusion at 1 µmol/kg per min. Challenges of angiotensin II were then repeated at 10- to 30-minute intervals up to 150 minutes following the bolus injection of BMS 186295.

CCCCC1=NC2(CCCC2)C(=O)N1Cc1ccc(-c2ccccc2-c2nnn[nH]2)cc1 [BMS 186295, 2-butyl-6,7,8,9-tetrahydro-3-[[2'-(1H-tetrazol-5-yl)[1,1'-biphenyl]-4-yl]-methyl]-1,3-diazaspiro[4.4]nonan-4-one]
pressor responses to angiotensin II, of the response before the administration of the inhibitor (following 30 µmol/kg, i.v. then 1 µmol/kg per min, up to 150 minutes): less than 17%
Change in mean arterial pressure (10′ after 30 µmol/kg, i.v. followed by 1 µmol/kg/min, i.v.): 3±2 mm Hg
Change in mean arterial pressure (20′ after 30 µmol/kg, i.v. followed by 1 µmol/kg/min, i.v.): 2±1 mm Hg
Change in mean arterial pressure (30′ after 30 µmol/kg, i.v. followed by 1 µmol/kg/min, i.v.): 3±2 mm Hg
Change in mean arterial pressure (40′ after 30 µmol/kg, i.v. followed by 1 µmol/kg/min, i.v.): 2±1 mm Hg
Change in mean arterial pressure (50′ after 30 µmol/kg, i.v. followed by 1 µmol/kg/min, i.v.): 1±1 mm Hg
Change in mean arterial pressure (60′ after 30 µmol/kg, i.v. followed by 1 µmol/kg/min, i.v.): 4±1 mm Hg
Change in mean arterial pressure (70′ after 30 µmol/kg, i.v. followed by 1 µmol/kg/min, i.v.): 5±2 mm Hg
Change in mean arterial pressure (80′ after 30 µmol/kg, i.v. followed by 1 µmol/kg/min, i.v.): 4±1 mm Hg
Change in mean arterial pressure (90′′ after 30 µmol/kg, i.v. followed by 1 µmol/kg/min, i.v.): 3±1 mm Hg
Change in mean arterial pressure (150′ after 30 µmol/kg, i.v. followed by 1 µmol/kg/min, i.v.): 2±1 mm Hg
Change in mean arterial pressure (120 min after 30 µmol/kg, i.v. followed by 1 µmol/kg/min, i.v.): 3±1 mm Hg
Change in mean arterial pressure (-10′, before BMS-186295): 31±3 mm Hg
Change in mean arterial pressure (-20′, before BMS-186295): 29±2 mm Hg
